In US8192962B2, “Processes for detecting toxic substances” (Daikin Industries, Ltd., priority 2001, dated 2012):

System: Genes belonging to other category
Assay: DNA chip mRNA expression in yeast, genes belonging to other category (Table 9)
Assay type: cell-based, Saccharomyces cerevisiae S288C
Outline: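 In this screen, yeast in logarithmic growth are challenged for two hours with a toxic substance at a non-lethal inhibitory concentration. Their mRNA, converted to Cy3- or Cy5-labeled cDNA, hybridizes at 65° C. to a chip spanning every yeast gene, and expression is expressed as a ratio to untreated cells.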

CCCCCCCCCCCCc1ccc(S(=O)(=O)[O-])cc1.[Na+] [(17), sodium dodecylbenzosulfonate]
The level of expressed mRNA in the presence of chemical substance/The level of expressed mRNA in the absence of chemical substance (yeast gene YAR010C): 1.5
The level of expressed mRNA in the presence of chemical substance/The level of expressed mRNA in the absence of chemical substance (yeast gene YBL005W-A): 1.3
The level of expressed mRNA in the presence of chemical substance/The level of expressed mRNA in the absence of chemical substance (yeast gene YBL041W): 1.3
The level of expressed mRNA in the presence of chemical substance/The level of expressed mRNA in the absence of chemical substance (yeast gene YBL043W): 2.3
The level of expressed mRNA in the presence of chemical substance/The level of expressed mRNA in the absence of chemical substance (yeast gene YBL078C): 1.8
The level of expressed mRNA in the presence of chemical substance/The level of expressed mRNA in the absence of chemical substance (yeast gene YBR214W): 1.1
The level of expressed mRNA in the presence of chemical substance/The level of expressed mRNA in the absence of chemical substance (yeast gene YCL020W): 0.9
The level of expressed mRNA in the presence of chemical substance/The level of expressed mRNA in the absence of chemical substance (yeast gene YCL027W): 0.7
The level of expressed mRNA in the presence of chemical substance/The level of expressed mRNA in the absence of chemical substance (yeast gene YCR004C): 1.4
The level of expressed mRNA in the presence of chemical substance/The level of expressed mRNA in the absence of chemical substance (yeast gene YCR071C): 1.2
The level of expressed mRNA in the presence of chemical substance/The level of expressed mRNA in the absence of chemical substance (yeast gene YCR088W): 1.4
The level of expressed mRNA in the presence of chemical substance/The level of expressed mRNA in the absence of chemical substance (yeast gene YDL008W): 1.5
The level of expressed mRNA in the presence of chemical substance/The level of expressed mRNA in the absence of chemical substance (yeast gene YDL238C): 1.1
The level of expressed mRNA in the presence of chemical substance/The level of expressed mRNA in the absence of chemical substance (yeast gene YDR055W): 2.0
The level of expressed mRNA in the presence of chemical substance/The level of expressed mRNA in the absence of chemical substance (yeast gene YDR084C): 2.0
The level of expressed mRNA in the presence of chemical substance/The level of expressed mRNA in the absence of chemical substance (yeast gene YDR085C): 1.3
The level of expressed mRNA in the presence of chemical substance/The level of expressed mRNA in the absence of chemical substance (yeast gene YDR104C): 0.9
The level of expressed mRNA in the presence of chemical substance/The level of expressed mRNA in the absence of chemical substance (yeast gene YDR115W): 1.2
The level of expressed mRNA in the presence of chemical substance/The level of expressed mRNA in the absence of chemical substance (yeast gene YDR259C): 1.0
The level of expressed mRNA in the presence of chemical substance/The level of expressed mRNA in the absence of chemical substance (yeast gene YDR315C): 1.2
The level of expressed mRNA in the presence of chemical substance/The level of expressed mRNA in the absence of chemical substance (yeast gene YDR358W): 1.9
The level of expressed mRNA in the presence of chemical substance/The level of expressed mRNA in the absence of chemical substance (yeast gene YDR388W): 1.2
The level of expressed mRNA in the presence of chemical substance/The level of expressed mRNA in the absence of chemical substance (yeast gene YDR432W): 0.7
The level of expressed mRNA in the presence of chemical substance/The level of expressed mRNA in the absence of chemical substance (yeast gene YDR481C): 1.2
The level of expressed mRNA in the presence of chemical substance/The level of expressed mRNA in the absence of chemical substance (yeast gene YDR510W): 1.1
The level of expressed mRNA in the presence of chemical substance/The level of expressed mRNA in the absence of chemical substance (yeast gene YEL042W): 0.7
The level of expressed mRNA in the presence of chemical substance/The level of expressed mRNA in the absence of chemical substance (yeast gene YEL066W): 1.0
The level of expressed mRNA in the presence of chemical substance/The level of expressed mRNA in the absence of chemical substance (yeast gene YER039C): 1.7
The level of expressed mRNA in the presence of chemical substance/The level of expressed mRNA in the absence of chemical substance (yeast gene YER107C): 1.1
The level of expressed mRNA in the presence of chemical substance/The level of expressed mRNA in the absence of chemical substance (yeast gene YER130C): 3.0
The level of expressed mRNA in the presence of chemical substance/The level of expressed mRNA in the absence of chemical substance (yeast gene YFL022C): 0.9
The level of expressed mRNA in the presence of chemical substance/The level of expressed mRNA in the absence of chemical substance (yeast gene YFL028C): 1.2
The level of expressed mRNA in the presence of chemical substance/The level of expressed mRNA in the absence of chemical substance (yeast gene YFL043C): 1.5
The level of expressed mRNA in the presence of chemical substance/The level of expressed mRNA in the absence of chemical substance (yeast gene YGL158W): 0.8
The level of expressed mRNA in the presence of chemical substance/The level of expressed mRNA in the absence of chemical substance (yeast gene YGL229C): 1.1
The level of expressed mRNA in the presence of chemical substance/The level of expressed mRNA in the absence of chemical substance (yeast gene YGR136W): 1.3
The level of expressed mRNA in the presence of chemical substance/The level of expressed mRNA in the absence of chemical substance (yeast gene YGR189C): 2.3
The level of expressed mRNA in the presence of chemical substance/The level of expressed mRNA in the absence of chemical substance (yeast gene YGR213C): 12.8
The level of expressed mRNA in the presence of chemical substance/The level of expressed mRNA in the absence of chemical substance (yeast gene YGR257C): 1.1
The level of expressed mRNA in the presence of chemical substance/The level of expressed mRNA in the absence of chemical substance (yeast gene YHR004C): 1.4
The level of expressed mRNA in the presence of chemical substance/The level of expressed mRNA in the absence of chemical substance (yeast gene YHR071W): 2.6
The level of expressed mRNA in the presence of chemical substance/The level of expressed mRNA in the absence of chemical substance (yeast gene YHR139C): 1.4
The level of expressed mRNA in the presence of chemical substance/The level of expressed mRNA in the absence of chemical substance (yeast gene YHR142W): 1.3
The level of expressed mRNA in the presence of chemical substance/The level of expressed mRNA in the absence of chemical substance (yeast gene YIL123W): 1.3
The level of expressed mRNA in the presence of chemical substance/The level of expressed mRNA in the absence of chemical substance (yeast gene YIL140W): 0.7
The level of expressed mRNA in the presence of chemical substance/The level of expressed mRNA in the absence of chemical substance (yeast gene YJL073W): 1.1
The level of expressed mRNA in the presence of chemical substance/The level of expressed mRNA in the absence of chemical substance (yeast gene YJL089W): 1.2
The level of expressed mRNA in the presence of chemical substance/The level of expressed mRNA in the absence of chemical substance (yeast gene YJL116C): 1.2
The level of expressed mRNA in the presence of chemical substance/The level of expressed mRNA in the absence of chemical substance (yeast gene YJR004C): 0.4
The level of expressed mRNA in the presence of chemical substance/The level of expressed mRNA in the absence of chemical substance (yeast gene YJR086W): 1.4
